# Experimental data as given in patent US10166218B2, “3-(1H-indol-2-yl)-1H-pyrazolo[3,4-C]pyridines and therapeutic uses thereof” (Samumed, LLC, priority 2015, dated 2019).
# Assays:
# Assay type in all cases: cell-based
# IL-6 (THP-1 cells) = experiment: Inhibition of IL-6 in LPS-stimulated THP-1 human monocyte cells (HTRF); conditions: for EC50: inhibition of IL-6 in LPS-stimulated THP-1 cells, HTRF, 10-point dose-response starting from 10 μM; for inhibition at 10 µM: IL-6 assay in LPS-stimulated THP-1 cells, given only where EC50 >10 μM, meaning not given (top concentration 10 μM), read-out: percentage given in parentheses after EC50 >10
# Procedure, shortened: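 Readout is the 665/620 nm HTRF ratio for secreted IL-6, normalized to DMSO wells, with EC50 from a variable-slope four-parameter fit, or % inhibition at 10 μM when above 10 μM. Cells (1% FBS, 24 h beforehand) got compound for 2 h, then LPS 500 ng/mL for 22 h at 37° C; top dose 10 μM, 0.1% DMSO.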
# [1] = test system: Wnt activity (Sp5-Luc reporter, TCF/LEF binding sites) in SW480 colon carcinoma cells; experiment: Screening assay for Wnt activity: Sp5-Luc reporter gene assay in stably transduced SW480 cells; conditions: Homo sapiens, overnight incubation
# Procedure, shortened: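 SW480 cells stably transduced with an Sp5 promoter (eight TCF/LEF sites)–firefly luciferase lentiviral reporter, plated at 4,000 cells/well in 1% FBS medium with compounds (10-point 1:3 series from 10 μM, 0.1% DMSO) overnight at 37 °C. BrightGlo luminescence normalised to DMSO; EC50 by four-parameter fit, else % inhibition at 10 μM.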
# SW480 colon cancer cells = experiment: Cell viability assay (CellTiter-Blue) in SW480 colon cancer cells; conditions: Homo sapiens, 96 h, four days; for inhibition at 10 µM: read-out: percent inhibition at 10 μM (given for EC50 of >10 μM); for EC50: CellTiter-Blue
# Procedure, shortened: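 Four-day viability readout in SW480 cells: compound at 0.0045–10 μM (1:3 series), DMSO controls in eight replicates, CellTiter-Blue fluorescence after ~3 h. Values are regression-derived EC50s, or percent inhibition at 10 μM when EC50 exceeds 10 μM.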
Structure (SMILES),EC50 (IL-6 (THP-1 cells)),EC50 [1],inhibition at 10 µM (SW480 colon cancer cells),EC50 (SW480 colon cancer cells),inhibition at 10 µM (IL-6 (THP-1 cells))
"O=C(Nc1cncc(-c2cc3c(-c4cc5c(-c6ccncc6)cccc5[nH]4)n[nH]c3cn2)c1)C1CCC1 [Compound 133, N-(5-(3-(4-(Pyridin-4-yl)-1H-indol-2-yl)-1H-pyrazolo[3,4-c]pyridin-5-yl)pyridin-3-yl)cyclobutanecarboxamide]",0.251 µM,0.401 µM,45.9%,> 10 µM,
"c1cc(-c2ccncc2)c2cc(-c3n[nH]c4cnc(-c5cncnc5)cc34)[nH]c2c1 [Compound 139, 3-(4-(Pyridin-4-yl)-1H-indol-2-yl)-5-(pyrimidin-5-yl)-1H-pyrazolo[3,4-c]pyridine]",> 10 µM,1.23 µM,15.5%,> 10 µM,3%
"Nc1cncc(-c2cc3c(-c4cc5c(-c6ccccn6)cccc5[nH]4)n[nH]c3cn2)c1 [Compound 143, 5-(3-(4-(Pyridin-2-yl)-1H-indol-2-yl)-1H-pyrazolo[3,4-c]pyridin-5-yl) pyridin-3-amine]",0.549 µM,0.255 µM,,1.92 µM,
"Cc1ccncc1-c1cc2c(-c3cc4c(-c5ccccn5)cccc4[nH]3)n[nH]c2cn1 [Compound 145, 5-(4-Methylpyridin-3-yl)-3-(4-(pyridin-2-yl)-1H-indol-2-yl)-1H-pyrazolo [3,4-c]pyridine]",2.83 µM,0.567 µM,,0.814 µM,
"CN(C)Cc1cncc(-c2cc3c(-c4cc5c(-c6ccccn6)cccc5[nH]4)n[nH]c3cn2)c1 [Compound 153, N,N-Dimethyl-1-(5-(3-(4-(pyridin-2-yl)-1H-indol-2-yl)-1H-pyrazolo[3,4-c]pyridin-5-yl)pyridin-3-yl)methanamine]",0.989 µM,0.711 µM,,2.06 µM,
"CCCCC(=O)Nc1cncc(-c2cc3c(-c4cc5c(-c6ccccn6)cccc5[nH]4)n[nH]c3cn2)c1 [Compound 159, N-(5-(3-(4-(Pyridin-2-yl)-1H-indol-2-yl)-1H-pyrazolo[3,4-c]pyridin-5-yl)pyridin-3-yl)pentanamide]",1.56 µM,3.48 µM,,2.81 µM,
"O=C(Nc1cncc(-c2cc3c(-c4cc5c(N6CCCCC6)cccc5[nH]4)n[nH]c3cn2)c1)C1CC1 [Compound 188, N-(5-(3-(4-(Piperidin-1-yl)-1H-indol-2-yl)-1H-pyrazolo[3,4-c]pyridin-5-yl)pyridin-3-yl)cyclopropanecarboxamide]",4.96 µM,2.42 µM,25.3%,> 10 µM,
"FC1(F)CCN(Cc2cncc(-c3cc4c(-c5cc6c(N7CCCCC7)cccc6[nH]5)n[nH]c4cn3)c2)C1 [Compound 194, 5-(5-((3,3-Difluoropyrrolidin-1-yl)methyl)pyridin-3-yl)-3-(4-(piperidin-1-yl)-1H-indol-2-yl)-1H-pyrazolo[3,4-c]pyridine]",> 10 µM,1.83 µM,,6.21 µM,0%
CC(C)C(=O)Nc1cncc(-c2cc3c(-c4cc5c(N6CCN(C)CC6)cccc5[nH]4)n[nH]c3cn2)c1 [Compound 233],0.753 µM,0.7 µM,,1.95 µM,
CN1CCN(c2cccc3[nH]c(-c4n[nH]c5cnc(-c6cncc(NC(=O)C7CCC7)c6)cc45)cc23)CC1 [Compound 245],0.967 µM,1.97 µM,64.6%,> 10 µM,
"O=C(Nc1cncc(-c2cc3c(-c4cc5ccccc5[nH]4)n[nH]c3cn2)c1)c1ccccc1 [Compound 263, N-(5-(3-(1H-Indol-2-yl)-1H-pyrazolo[3,4-c]pyridin-5-yl)pyridin-3-yl) benzamide]",1.19 µM,0.199 µM,,4.92 µM,
"c1ccc2[nH]c(-c3n[nH]c4cnc(-c5cncc(CN6CCCC6)c5)cc34)cc2c1 [Compound 266, 3-(1H-Indol-2-yl)-5-(5-(pyrrolidin-1-ylmethyl)pyridin-3-yl)-1H-pyrazolo [3,4-c]pyridine]",0.424 µM,0.39 µM,,1.64 µM,
"CC(C)(C)CC(=O)Nc1cncc(-c2cc3c(-c4cc5ccccc5[nH]4)n[nH]c3cn2)c1 [Compound 268, N-(5-(3-(1H-Indol-2-yl)-1H-pyrazolo[3,4-c]pyridin-5-yl)pyridin-3-yl)-3,3-dimethylbutanamide]",> 10 µM,0.615 µM,4.5%,> 10 µM,25.1%
"O=C(Nc1cncc(-c2cc3c(-c4cc5ccccc5[nH]4)n[nH]c3cn2)c1)C1CCCCC1 [Compound 275, N-(5-(3-(1H-Indol-2-yl)-1H-pyrazolo[3,4-c]pyridin-5-yl)pyridin-3-yl) cyclohexanecarboxamide]",0.092 µM,0.635 µM,35.4%,> 10 µM,
"c1cc(-c2ccoc2)c2cc(-c3n[nH]c4cnc(-c5cncc(CN6CCCCC6)c5)cc34)[nH]c2c1 [Compound 323, 3-(4-(Furan-3-yl)-1H-indol-2-yl)-5-(5-(piperidin-1-ylmethyl)pyridin-3-yl)-1H-pyrazolo[3,4-c]pyridine]",3.49 µM,2.77 µM,,2.34 µM,
"CN(C)CCNc1cc(F)cc(-c2cccc3[nH]c(-c4n[nH]c5cnc(-c6cncc(N)c6)cc45)cc23)c1 [Compound 451, N^1-(3-(2-(5-(5-Aminopyridin-3-yl)-1H-pyrazolo[3,4-c]pyridin-3-yl)-1H-indol-4-yl)-5-fluorophenyl)-N^2,N^2-dimethylethane-1,2-diamine]",0.091 µM,0.448 µM,,0.659 µM,
"CCNCc1cncc(-c2cc3c(-c4cc5c(-c6cc(F)cc(NCCN(C)C)c6)cccc5[nH]4)n[nH]c3cn2)c1 [Compound 454, N^1-(3-(2-(5-(5-((Ethylamino)methyl)pyridin-3-yl)-1H-pyrazolo[3,4-c]pyridin-3-yl)-1H-indol-4-yl)-5-fluorophenyl)-N^2,N^2-dimethylethane-1,2-diamine]",0.856 µM,1.26 µM,,1.48 µM,
"CN(C)CCNc1cc(F)cc(-c2cccc3[nH]c(-c4n[nH]c5cnc(-c6cncc(NC(=O)C(C)(C)C)c6)cc45)cc23)c1 [Compound 456, N-(5-(3-(4-(3-((2-(Dimethylamino)ethyl)amino)-5-fluorophenyl)-1H-indol-2-yl)-1H-pyrazolo[3,4-c]pyridin-5-yl)pyridin-3-yl)pivalamide]",0.286 µM,0.386 µM,,0.437 µM,
"CN(C)CCNc1cc(F)cc(-c2cccc3[nH]c(-c4n[nH]c5cnc(-c6cncc(CN(C)C)c6)cc45)cc23)c1 [Compound 461, N^1-(3-(2-(5-(5-((Dimethylamino)methyl)pyridin-3-yl)-1H-pyrazolo[3,4-c]pyridin-3-yl)-1H-indol-4-yl)-5-fluorophenyl)-N^2,N^2-dimethylethane-1,2-diamine]",0.657 µM,1.31 µM,,0.964 µM,
"CN(C)CCNc1cc(F)cc(-c2cccc3[nH]c(-c4n[nH]c5cnc(-c6ccccn6)cc45)cc23)c1 [Compound 476, N^1-(3-Fluoro-5-(2-(5-(pyridin-2-yl)-1H-pyrazolo[3,4-c]pyridin-3-yl)-1H-indol-4-yl)phenyl)-N^2,N^2-dimethylethane-1,2-diamine]",1.56 µM,3.75 µM,,2.85 µM,
"Cc1ccncc1-c1cc2c(-c3cc4c(-c5cc(F)cc(CNS(C)(=O)=O)c5)cccc4[nH]3)n[nH]c2cn1 [Compound 481, N-(3-Fluoro-5-(2-(5-(4-methylpyridin-3-yl)-1H-pyrazolo[3,4-c]pyridin-3-yl)-1H-indol-4-yl)benzyl)methanesulfonamide]",1.18 µM,0.195 µM,,1.93 µM,
"CS(=O)(=O)NCc1cc(F)cc(-c2cccc3[nH]c(-c4n[nH]c5cnc(-c6cncc(NC(=O)c7ccccc7)c6)cc45)cc23)c1 [Compound 487, N-(5-(3-(4-(3-Fluoro-5-(methylsulfonamidomethyl)phenyl)-1H-indol-2-yl)-1H-pyrazolo[3,4-c]pyridin-5-yl)pyridin-3-yl)benzamide]",> 10 µM,0.8 µM,45.4%,> 10 µM,28.8%
"CS(=O)(=O)NCc1cc(F)cc(-c2cccc3[nH]c(-c4n[nH]c5cnc(-c6cncnc6)cc45)cc23)c1 [Compound 503, N-(3-Fluoro-5-(2-(5-(pyrimidin-5-yl)-1H-pyrazolo[3,4-c]pyridin-3-yl)-1H-indol-4-yl)benzyl)methanesulfonamide]",2.98 µM,0.56 µM,,4 µM,
"Nc1cncc(-c2cc3c(-c4cc5ncccc5[nH]4)n[nH]c3cn2)c1 [Compound 507, 5-(3-(1H-Pyrrolo[3,2-b]pyridin-2-yl)-1H-pyrazolo[3,4-c]pyridin-5-yl) pyridin-3-amine]",0.404 µM,0.248 µM,,1.23 µM,
